According to PMC9097129, “C-terminal mini-PEGylation of a marine peptide N6 had potent antibacterial and anti-inflammatory properties against Escherichia coli and Salmonella strains in vitro and in vivo” (BMC Microbiology, 2022):
In brackets after ≈: the same amount, converted by molar mass. Bridge positions count the residues as written; N and C are the ends. Square brackets hold non-standard residues; d marks the D form. Peptide text beside a SMILES is read from it. AEEA = NCCOCCOCC(=O)O

Key:
E. coli ATCCO157 = type: cell-based, Escherichia coli; conditions: MHB, 1 × 10^5 CFU/mL, 37 °C, 18 – 24 h, triplicate
Description: (§1) The MIC was determined according to the method developed by Clinical and Laboratory Standards Institute (CLSI). The strains were cultured in Mueller–Hinton Broth medium (MHB) at the appropriate temperature until mid-log phase. A series of two-fold dilutions of N6 and PEGylated N6 (10 μL) and bacterial suspension (1 × 10^5 CFU/mL, 90 μL) were added into 96-well plates and incubated at 37 °C for 18 – 24 h. PBS and MHB were used as the negative and blank control, respectively. All assays were conducted in triplicate.

E. coli CVCC1515 = type: cell-based, Escherichia coli
Description: as §1

E. coli CVCC195 = type: cell-based, Escherichia coli
Description: as §1

E. coli CVCC25922 = type: cell-based, Escherichia coli
Description: as §1

P. aeruginosa CICC21630 = type: cell-based
Description: as §1

S. aureus ATCC25923 = type: cell-based
Description: as §1

S. aureus ATCC43300 = type: cell-based
Description: as §1

S. aureus ATCC546 = type: cell-based
Description: as §1

S. enteritidis CVCC3377 = type: cell-based
Description: as §1

S. hyicus NCTC10350 = type: cell-based
Description: as §1

S. typhimurium ATCC14028 = type: cell-based
Description: as §1

S. pullorum CVCC1789 = type: cell-based, Salmonella pullorum
Description: as §1

S. pullorum CVCC1802 = type: cell-based, Salmonella pullorum
Description: as §1

S. pullorum CVCC533 = type: cell-based, Salmonella pullorum
Description: as §1

C. albicans CMCC98001 = type: cell-based, Candida albicans
Description: as §1

## CC(C)[C@@H]1NC(=O)CNC(=O)[C@H](CC(N)=O)NC(=O)[C@H](CCCNC(=N)N)NC(=O)[C@H](Cc2ccc(O)cc2)NC(=O)[C@H](C(C)C)NC(=O)[C@@H](NC(=O)[C@@H](NC(=O)[C@H](CC(N)=O)NC(=O)[C@H](Cc2c[nH]c3ccccc23)NC(=O)[C@H](C)NC(=O)[C@H](Cc2ccccc2)NC(=O)CNC(=O)COCCOCCN)C(C)C)CSSC[C@@H](C(=O)N[C@@H](Cc2c[nH]cn2)C(=O)N[C@@H](CCCNC(=N)N)C(=O)N[C@@H](CCCNC(=N)N)C(=O)N[C@@H](C)C(=O)N[C@@H](CC(N)=O)C(=O)O)NC(=O)[C@H](C(C)C)NC(=O)[C@H](CCCNC(=N)N)NC1=O [N6-NH2-miniPEG] (H-[AEEA]GFAWNVCVYRNGVRVCHRRAN-OH; disulfide 8-17)
E. coli ATCCO157
  MIC: 6.10 µM (≈ 16 µg/mL)
E. coli CVCC1515
  MIC: 6.1 µM (≈ 16 µg/mL)
E. coli CVCC195
  MIC: 6.1 µM (≈ 16 µg/mL)
E. coli CVCC25922
  MIC: 3.05 µM (≈ 7.99 µg/mL)
P. aeruginosa CICC21630
  MIC: 24.42 µM (≈ 64 µg/mL)
S. aureus ATCC25923
  MIC: > 48.84 µM
S. aureus ATCC43300
  MIC: 48.84 µM (≈ 128 µg/mL)
S. aureus ATCC546
  MIC: 48.84 µM (≈ 128 µg/mL)
S. enteritidis CVCC3377
  MIC: 6.10 µM (≈ 16 µg/mL)
S. hyicus NCTC10350
  MIC: > 48.84 µM
S. typhimurium ATCC14028
  MIC: 6.10 µM (≈ 16 µg/mL)
S. pullorum CVCC1789
  MIC: 6.10 µM (≈ 16 µg/mL)
S. pullorum CVCC1802
  MIC: 6.10 µM (≈ 16 µg/mL)
S. pullorum CVCC533
  MIC: 12.21 µM (≈ 32 µg/mL)
C. albicans CMCC98001
  MIC: > 48.84 µM
